Laboratory results published in US10478482B2, “Vaccines for prevention and treatment of tuberculosis” (ALARUM DEVELOPMENT LTD, priority 2011, dated 2019).

Key:
[1] = system: serum from patients with TB; experiment: Antibody recognition of peptides by serum from patients with TB; assay type: binding, human; conditions: for Average int. / N. of slide (frequency of recognition): serum from the group TB; for N. of slide (frequency of recognition): out of 9 individuals
Excerpt: (§1) Serum was obtained from patients with sarcoidosis (FIG. 4A) and from patients with TB (FIG. 4B). The number indicate the frequency of recognition, e.g. 1/9 individuals up to 9/9 individuals. The listed peptides are only listed if they are present in one group (sarcoidosis versus tuberculosis) and if the peptide is never recognized in any serum from the respective control group. […] Strong IgG response requires strong T-cell help which lends support that these antigens are also recognized by T-cells.

[2] = system: serum from patients with sarcoidosis; experiment: Antibody recognition of peptides by serum from patients with sarcoidosis; assay type: binding, human; conditions: for Average int. / N. of slide (frequency of recognition): serum from the group sarcoidosis; for N. of slide (frequency of recognition): out of 9 individuals
Excerpt: as §1

peritoneal macrophages = experiment: Cytokine induction in peritoneal macrophages; assay type: cell-based, mouse; conditions: FIG. 10
PBMCs = assay type: cell-based, monkey
[3] = system: IFNγ production in freshly harvested Heparin-blood; assay type: cell-based, human

Substance	Average int. [1]	N. of slide (frequency of recognition) [1]	Average int. [2]	N. of slide (frequency of recognition) [2]	further results
AAGNNVTVFGYSQSA [CAE55427-PPE family protein_289]	0.4545	6			
APALMDVEAAYEQMW [CAE55281-PPE family protein_133]			1.6787	9	
AWVSRGAHKLVGALE [CAB10951-cytotoxin haemolysin homologue TLYA_61]	0.7175	7			
GGGNTGSGNIGNGNK [CAE55613-PPE family protein_193]			1.2266	9	
GLYQVVPGIYQVRGF [CAA18084-possible hydrolase_85]	0.5432	8			
GSSAMILAAYHPQQF [CAB10044-secreted antigen 85-B FBPB (85B)A_169]			0.6077	9	
LSGDNQQGFNFAGGW [CAE55276-PPE family protein_1117]			1.6435	9	
MTAPVWLASPPEVHS [CAE55538-PPE family protein_1]	0.8461	8			
NANFGGGNGSAFHGQ [CAE55320-PPE family protein_205]			1.4131	9	
NTGSYNMGDFNPGSS [CAE55416-PPE family protein_385]	0.9479	7			
Possible glycosyltransferase [CAB05419/Rv2957]					induction of IL-10 (peritoneal macrophages): little induction; induction of IL-12 (peritoneal macrophages): Strong induction; induction of TGF-β (peritoneal macrophages): Strong induction; induction of TN-Fa (peritoneal macrophages): little induction; recognition by serum from the group sarcoidosis (in words) [2]: never; intracellular cytokines, here represented by IL-2 (PBMCs): Detection of intracellular cytokines; antigen-specific T-cell responses (IFNγ) [3]: can be detected; recognition by serum from the group TB (in words) [1]: most frequently recognized
QWILHMAKLSAAMAK [CAA17973-conserved hypothetical alanine and_193]	0.4333	6			
SSGKPGRDPEAGRYG [CAB02482-probable lipase lipe_385]			1.3190	9	
TRLGIRLVIVLVRRW [CAB05419-possible glycosyl transferase_241]	0.9264	9			
VIGGIGPIHVQPIDI [CAE55585-PPE family protein_865]			0.7433	9	
